Data published in ChEMBL document CHEMBL1129022, “Synthesis and antibacterial activity of new tropone-substituted phenyloxazolidinone antibacterial agents 2. Modification of the phenyl ring the potentiating effect of fluorine substitution on in vivo activity” (1996).
Values after ≈ are worked out from the molar mass of the structure shown.

Key:
Type in all cases: functional
[1] = test system: Mycobacterium tuberculosis; assay: Compound was tested in vitro for antibacterial activity against Mycobacterium tuberculosis H37Rv.
Mus musculus = assay: Amount of drug required (mg/kg body weight/dose) to cure 50% of infected mice subjected to a lethal systemic infection with Staphylococcus aureus UC 9213
Enterococcus faecalis = assay: Compound was tested in vitro for antibacterial activity against Enterococcus faecalis UC 9217.
Staphylococcus aureus [2] = assay: Compound was tested in vitro for antibacterial activity against methicillin-resistant Staphylococcus aureus UC 6685
Staphylococcus aureus [3] = assay: Compound was tested in vitro for antibacterial activity against methicillin-susceptible Staphylococcus aureus UC 9213.
Streptococcus pneumoniae = assay: Compound was tested in vitro for antibacterial activity against Streptococcus pneumoniae UC 9912.
Bacteroides fragilis = assay: Compound was tested in vitro for antibacterial activity against Bacteroides fragilis UC 12199.
[4] = test system: Staphylococcus epidermidis; assay: Compound was tested in vitro for antibacterial activity against methicillin-resistant Staphylococcus epidermidis UC 12084.
Escherichia coli [5] = assay: Compound was tested in vitro for antibacterial activity against Escherichia coli extracts, using cell free prokaryotic transcription coupled translation (T/T) assay at 2 ug/mL
Escherichia coli [6] = assay: Compound was tested in vitro for antibacterial activity against Escherichia coli extracts, using cell free prokaryotic transcription coupled translation (T/T) assay.; conditions: dose or concentration not given here

Structure (SMILES) | MIC [1] | ED50 (Mus musculus) | MIC (Enterococcus faecalis) | MIC (Staphylococcus aureus [2]) | MIC (Staphylococcus aureus [3]) | MIC (Streptococcus pneumoniae) | MIC (Bacteroides fragilis) | MIC [4] | inhibition (Escherichia coli [5]) | inhibition (Escherichia coli [6])
COc1ccc(-c2ccc(N3C[C@H](CNC(C)=O)OC3=O)cc2F)ccc1=O | < 1 µg/mL | 4.1 mg/kg | 0.5 µg/mL (≈ 1.29 µM) | 0.5 µg/mL (≈ 1.29 µM) | 1 µg/mL (≈ 2.59 µM) | 0.125 µg/mL (≈ 0.324 µM) | 8 µg/mL (≈ 20.7 µM) | 0.25 µg/mL (≈ 0.647 µM) |  | 
COc1ccc(-c2ccc(N3CC(CNC(C)=O)OC3=O)cc2Cl)ccc1=O (centres undefined) |  | > 20 mg/kg | 2 µg/mL (≈ 4.96 µM) |  | 4 µg/mL (≈ 9.93 µM) | 1 µg/mL (≈ 2.48 µM) |  | 1 µg/mL (≈ 2.48 µM) | 71% | 
C#CCNc1ccc(-c2ccc(N3C[C@H](CNC(C)=O)OC3=O)cc2F)ccc1=O |  | 1.3 mg/kg | 0.5 µg/mL (≈ 1.22 µM) | 0.5 µg/mL (≈ 1.22 µM) | 1 µg/mL (≈ 2.44 µM) | 0.125 µg/mL (≈ 0.305 µM) | 2 µg/mL (≈ 4.88 µM) | 0.25 µg/mL (≈ 0.611 µM) |  | 
COc1ccc(-c2ccc(N3CC(CNC(C)=O)OC3=O)cc2)ccc1=O (centres undefined) |  | 12.2 mg/kg | 1 µg/mL (≈ 2.71 µM) |  | 2 µg/mL (≈ 5.43 µM) | 0.25 µg/mL (≈ 0.679 µM) |  | 0.5 µg/mL (≈ 1.36 µM) | 89% | 
C/N=c1\ccc(-c2ccc(N3C[C@H](CNC(C)=O)OC3=O)cc2F)ccc1O |  |  | 0.25 µg/mL (≈ 0.649 µM) | 0.25 µg/mL (≈ 0.649 µM) | 0.5 µg/mL (≈ 1.3 µM) | 0.125 µg/mL (≈ 0.324 µM) | 2 µg/mL (≈ 5.19 µM) | 0.125 µg/mL (≈ 0.324 µM) |  | 
COc1ccc(-c2c(F)cc(N3C[C@H](CNC(C)=O)OC3=O)cc2F)ccc1=O |  | 2.3 mg/kg | 1 µg/mL (≈ 2.47 µM) | 0.5 µg/mL (≈ 1.24 µM) | 1 µg/mL (≈ 2.47 µM) | 0.25 µg/mL (≈ 0.618 µM) | 8 µg/mL (≈ 19.8 µM) | 0.5 µg/mL (≈ 1.24 µM) |  | 
COc1ccc(-c2ccc(N3CC(CNC(C)=O)OC3=O)cc2C(F)(F)F)ccc1=O (centres undefined) |  | > 20 mg/kg | 16 µg/mL (≈ 36.7 µM) |  | 32 µg/mL (≈ 73.3 µM) | 4 µg/mL (≈ 9.17 µM) |  | 4 µg/mL (≈ 9.17 µM) | 58% | 
CN[C@H](CC(C)C)C(=O)N[C@H]1C(=O)N[C@@H](CC(N)=O)C(=O)N[C@H]2C(=O)N[C@H]3C(=O)N[C@H](C(=O)N[C@H](C(=O)O)c4cc(O)cc(O)c4-c4cc3ccc4O)[C@H](O)c3ccc(c(Cl)c3)Oc3cc2cc(c3O[C@@H]2O[C@H](CO)[C@@H](O)[C@H](O)[C@H]2O[C@H]2C[C@](C)(N)[C@H](O)[C@H](C)O2)Oc2ccc(cc2Cl)[C@H]1O [VANCOMYCIN] |  | 2.2 mg/kg |  |  |  | 0.5 µg/mL (≈ 0.345 µM) |  |  |  | 
COc1ccc(-c2c(F)cc(N3CC(CNC(C)=O)OC3=O)cc2F)ccc1=O (centres undefined) |  | 3.7 mg/kg | 1 µg/mL (≈ 2.47 µM) |  | 2 µg/mL (≈ 4.95 µM) | 0.5 µg/mL (≈ 1.24 µM) |  | 0.5 µg/mL (≈ 1.24 µM) |  | 85%
COc1ccc(-c2ccc(N3CC(CNC(C)=O)OC3=O)cc2F)ccc1=O (centres undefined) |  | 7.7 mg/kg | 1 µg/mL (≈ 2.59 µM) |  | 1 µg/mL (≈ 2.59 µM) | 0.25 µg/mL (≈ 0.647 µM) |  | 0.5 µg/mL (≈ 1.29 µM) |  | 
